Laboratory results as given in ChEMBL document CHEMBL1201862, “PubChem BioAssay data set” (2004).
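96-well plates; 48 h exposure; 5 concentrations. Endpoints by linear interpolation between flanking doses. Not reached: highest tested concentration assigned. GI50 marks 50% less growth.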 Calls of active or inactive are those of the source. Cut-off read from the data, not from the text of the source: active = GI50 up to about 1.1 µM and inactive = higher.

What was measured:
Test in all cases: NCI anticancer screen, dose series, 48 h
[1] = test system: T47D
[2] = test system: HOP-18
[3] = test system: XF498
[4] = test system: M19-MEL
[5] = test system: KM-20L2
[6] = test system: DMS-273
[7] = test system: DMS-114
[8] = test system: SNB-78
[9] = test system: RXF 631

O=C(CCc1cccc(O)c1)NCCc1ccc(O)cc1 was tested, and the GI50 [1] was > 100 µM (inactive).
For NC(=O)NC1NC(=O)NC1=O (stereo unspecified) [ALLANTOIN], the GI50 [1] was > 100 µM (inactive).
For O=S(=O)(O)C(F)(F)C(F)(F)C(F)(F)C(F)(F)F, the GI50 [2] was > 100 µM (inactive), the GI50 [3] was > 100 µM (inactive) and the GI50 [4] was > 100 µM (inactive). For the same compound, the GI50 [5] was > 100 µM (inactive), the GI50 [6] was > 100 µM (inactive) and the GI50 [7] was > 100 µM (inactive).
O=P(O)(CCP(=O)(O)c1ccccc1)c1ccccc1 was tested, and the GI50 [1] was > 100 µM (inactive).
In the case of Cc1ccc2nc(/C=N/c3ccccc3Cl)cc(C)c2c1, the GI50 [1] is reported as 22.4 µM (inactive).
With C[C@H]1C[C@H]2[C@@H]3C(C)(C)O[C@]4(O)C(=O)[C@]5(O)[C@@H](C)CC[C@H]1[C@]25C(=O)[C@]34C the GI50 [1] was 25.2 µM (inactive).
In the case of COc1ccc(/C=N/N2C(=O)c3c(N)c(C#N)c(-c4ccccc4)c(-c4ccccc4)c3C2=O)cc1, the GI50 [1] is reported as > 100 µM (inactive).
In the case of Cc1ccc(S(=O)(=O)OCCn2cnc3nc(NC(=O)c4ccccc4)[nH]c(=O)c32)cc1, the GI50 [2] is reported as > 100 µM (inactive), the GI50 [4] is reported as > 100 µM (inactive) and the GI50 [5] is reported as > 100 µM (inactive). The GI50 [6] was > 100 µM (inactive), the GI50 [7] was > 100 µM (inactive) and the GI50 [8] was > 100 µM (inactive).
In the case of O=C1OCCC12CN(Cc1ccccc1)N=N2 (stereo unspecified), the GI50 [1] is reported as > 100 µM (inactive).
With Oc1cc(/C=C/c2ccccc2)nc2cc3c(cc12)OCO3 the GI50 [1] was 3.28 µM (inactive).
For CC(=O)SC(C[N+](=O)[O-])c1ccccc1 (stereo unspecified), the GI50 [1] was 10.4 µM (inactive).
O=C(/C=C/c1ccc(-c2ccccc2)cc1)NCc1ccc(C(=O)NCCc2ccccc2)cc1 was tested, and the GI50 [1] was > 100 µM (inactive).
For CCOC(=O)C[C@@H](C)[C@]1(C(=O)OC)CCCC1=O, the GI50 [2] was > 100 µM (inactive), the GI50 [3] was > 100 µM (inactive) and the GI50 [4] was > 100 µM (inactive). For the same compound, the GI50 [5] was > 59.2 µM (inactive), the GI50 [6] was > 70.6 µM (inactive) and the GI50 [7] was > 44.4 µM (inactive). For the same compound, the GI50 [8] was > 100 µM (inactive).
For O=C1c2ccccc2-c2nc(-c3cccc([N+](=O)[O-])c3)nnc21, the GI50 [1] was 44.5 µM (inactive).
For O=C(Cc1ccccc1)NNc1nc(NNC(=O)c2ccncc2)nc(Nc2cccc(Cl)c2)n1, the GI50 [1] was > 10 µM (inactive).
In the case of COC(=O)[C@@H]1C(=O)O[C@@H](c2ccc(OC)c(OC)c2OC)[C@@H]1C(=O)OC.COC(=O)[C@H]1C(=O)O[C@@H](c2ccc(OC)c(OC)c2OC)[C@@H]1C(=O)OC, the GI50 [3] is reported as > 100 µM (inactive), the GI50 [4] is reported as > 100 µM (inactive) and the GI50 [5] is reported as > 100 µM (inactive). For the same compound, the GI50 [9] was > 100 µM (inactive), the GI50 [6] was > 100 µM (inactive) and the GI50 [7] was > 100 µM (inactive). The GI50 [8] was > 100 µM (inactive).
In the case of c1ccc(SC(CCCCOC2CCCCO2)Sc2ccccc2)cc1 (stereo unspecified), the GI50 [3] is reported as > 100 µM (inactive), the GI50 [4] is reported as 46.6 µM (inactive) and the GI50 [6] is reported as > 100 µM (inactive). The GI50 [7] was 34.1 µM (inactive) and the GI50 [8] was 97.1 µM (inactive).
For COC(=O)CC1NC(=O)C1C(C)(OC)OC (stereo unspecified), the GI50 [3] was > 100 µM (inactive), the GI50 [4] was > 100 µM (inactive) and the GI50 [5] was > 100 µM (inactive). The GI50 [9] was > 100 µM (inactive), the GI50 [6] was > 100 µM (inactive) and the GI50 [7] was > 100 µM (inactive).
For CCCCCCCC[N+](C)(C)Cc1ccc(C[N+](C)(C)CCCCCCCC)cc1, the GI50 [2] was > 100 µM (inactive), the GI50 [4] was 31.3 µM (inactive) and the GI50 [5] was 7.71 µM (inactive). The GI50 [9] was > 100 µM (inactive), the GI50 [6] was 3.84 µM (inactive) and the GI50 [7] was 8.67 µM (inactive). The GI50 [8] was 44.3 µM (inactive).
CS(=O)(=O)N1CC(CCl)c2ccc([N+](=O)[O-])cc21 (stereo unspecified) was tested, and the GI50 [1] was > 100 µM (inactive).
For COC(=O)c1cc(C#Cc2cc(OC)ccc2OC)ccc1OC, the GI50 [1] was 2.04 µM (inactive).
For CCNc1ccc2c(c1)C(=O)N(OS(C)(=O)=O)C2=O, the GI50 [1] was > 100 µM (inactive).
With C/C(=C\COc1cc(O)c2c(c1)C(=O)c1cc(C)cc(O)c1C2=O)CCC1OC1(C)C (stereo unspecified) the GI50 [1] was 49.4 µM (inactive).
With Cc1cc2c(=O)cc(-c3ccc(Cl)cc3Cl)oc2c(C(=O)O)c1C the GI50 [2] was > 100 µM (inactive), the GI50 [3] was > 100 µM (inactive) and the GI50 [5] was > 100 µM (inactive). The GI50 [7] was > 100 µM (inactive) and the GI50 [8] was > 100 µM (inactive).
In the case of CCOC(=O)c1c(SCCN2CCCCC2)n(-c2ccccc2)c(=S)n(-c2ccccc2)c1=O, the GI50 [1] is reported as 4.6 µM (inactive).
CC(C)CNC(=O)Cn1c(-c2ccccc2)cc2ccccc21 was tested, and the GI50 [1] was > 100 µM (inactive).
In the case of C1=CC=C2NCCC/N=C3/C=CC=CC=C3NCCC/N=C\2C=C1, the GI50 [3] is reported as > 100 µM (inactive), the GI50 [4] is reported as > 100 µM (inactive) and the GI50 [5] is reported as > 100 µM (inactive). The GI50 [9] was > 100 µM (inactive), the GI50 [6] was > 100 µM (inactive) and the GI50 [7] was > 100 µM (inactive). For the same compound, the GI50 [8] was > 100 µM (inactive).
For CC(C)CC1NC(=O)CCC(NC(=O)C(Cc2ccc(O)cc2)NC(=O)OCc2ccccc2)C(=O)NC(Cc2ccccc2)C(=O)NC(Cc2ccccc2)NC1=O (stereo unspecified), the GI50 [1] was > 100 µM (inactive).
With CC(=O)OCC1OC(OCCCOP(=O)(OCCC#N)OCC2OC(n3cnc4c(N)ncnc43)C(OC(=O)c3ccccc3)C2OC(=O)c2ccccc2)C(OC(C)=O)C(OC(C)=O)C1OC(C)=O (stereo unspecified) the GI50 [1] was > 100 µM (inactive).
COc1cc(/C=C2\[C@H]3c4c(c(OC)c(C)c(OC)c4OC)CC(C(=O)N2Cc2ccccc2)N3C)c(OC)c(C)c1OC was tested, and the GI50 [2] was 23.7 µM (inactive), the GI50 [4] was 17.4 µM (inactive) and the GI50 [5] was 20.3 µM (inactive). The GI50 [6] was 15.5 µM (inactive).
For CN(C)C(=O)Nc1cc2c3c(c1)CCCN3CCC2, the GI50 [1] was > 10 µM (inactive).
